Tests used:
[1] = tested on: IL-17 production by CD4 T cells; assay: Human Th17 Assay; assay type: cell-based; conditions: human CD4+ T cells under Th17 differentiation, 3 days, IL-17 in supernatant
Text: The human Th17 assay tests the effect of RORγt modulatory compounds on IL-17 production by CD4 T cells under conditions which favor Th17 differentiation.
Total CD4^+ T cells were isolated from the peripheral blood mononuclear cells (PBMC) of healthy donors using a CD4^+ T cell isolation kit II, following the manufacturer's instructions (Miltenyi Biotec). Cells were resuspended in a medium of RPMI-1640 supplemented with 10% fetal bovine serum, penicillin, streptomycin, glutamate, and β-mercaptoethanol and were added to 96-well plates at 1.5×10^5 per 100 μL per well. 50 μL of compound at titrated concentrations in DMSO were added into each well at final DMSO concentration at 0.2%. Cells were incubated for 1 hour, then 50 μL of Th17 cell differentiation medium was added to each well. […] Supernatants were collected and the accumulated IL-17 in culture was measured by using MULTI-SPOT® Cytokine Plate following manufacture's instruction (Meso Scale Discovery). The plate was read using Sector Imager 6000, and IL-17 concentration was extrapolated from the standard curve. The IC50s were determined by GraphPad.

[2] = target: T1, human RORγt ligand binding domain (RORγt LBD) (Homo sapiens, UniProt P51449); assay: RORγt ThermoFluor assay (thermal shift binding affinity); conditions: 0.065 mg/mL RORγt, pH 7.0; estimated from concentration response curves
T1 construct: His-tag (N); TurboTEV protease cleavage site (ENLYFQG) (N); made in house; host or cells: E. coli (pHIS1, modified pET vector)
T1 sequence (P51449 with tags, fused parts or gaps): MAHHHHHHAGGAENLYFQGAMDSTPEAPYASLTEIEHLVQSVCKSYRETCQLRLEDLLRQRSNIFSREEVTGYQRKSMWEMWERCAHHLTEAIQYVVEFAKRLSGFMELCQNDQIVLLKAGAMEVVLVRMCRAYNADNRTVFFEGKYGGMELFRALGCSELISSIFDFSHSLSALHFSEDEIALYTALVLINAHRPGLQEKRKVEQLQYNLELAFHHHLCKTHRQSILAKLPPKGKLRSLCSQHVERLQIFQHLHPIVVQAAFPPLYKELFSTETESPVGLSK
Experimental: This approach is applicable to a wide variety of systems, and rigorous in theoretical interpretation through quantitation of equilibrium binding constants (KD).
The shift in the melting point described as a ΔTm is proportional to the concentration and affinity of the ligand. The compound potency may be compared as a rank order of either ΔTm values at a single compound concentration or in terms of KD values, estimated from concentration response curves.
ThermoFluor® experiments were carried out using instruments owned by Janssen Research and Discovery, L.L.C. through its acquisition of 3-Dimensional Pharmaceuticals, Inc. 1,8-ANS (Invitrogen) was used as a fluorescent dye. […]
Fluorescence was measured by continuous illumination with UV light (Hamamatsu LC6) supplied via fiber optic and filtered through a band-pass filter (380-400 nm; >6 OD cutoff). Fluorescence emission of the entire 384-well plate was detected by measuring light intensity using a CCD camera (Sensys, Roper Scientific) filtered to detect 500±25 nm, resulting in simultaneous and independent readings of all 384 wells. Images were collected at each temperature, and the sum of the pixel intensity in a given area of the assay plate was recorded versus temperature. […]

human RORγt LBD = target: T2, human RORγt LBD (Homo sapiens, UniProt P51449); assay: RORγt (LBD) Reporter Assay (GAL4 luciferase, HEK293T); assay type: cell-based; conditions: HEK293T cells; for IC50: 24 hours with compound
T2 construct: expressed in transfected cells; host or cells: HEK293T
T2 sequence (P51449 258-518): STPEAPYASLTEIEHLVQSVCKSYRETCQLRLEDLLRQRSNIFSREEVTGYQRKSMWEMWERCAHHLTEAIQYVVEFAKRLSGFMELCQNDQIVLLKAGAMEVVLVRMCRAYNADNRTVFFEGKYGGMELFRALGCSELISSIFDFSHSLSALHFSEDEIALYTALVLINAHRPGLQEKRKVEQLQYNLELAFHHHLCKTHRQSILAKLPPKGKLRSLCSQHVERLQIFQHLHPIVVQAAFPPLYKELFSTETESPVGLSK
Experimental: Compounds were assessed for RORgt functional modulation using either the RORgt ligand binding domain (LBD) reporter assay, or the RORgt full-length (FL) reporter assay.
A reporter assay was used to test functional activity of RORγt modulatory compounds on transcriptional activation driven by the RORγt LBD. Cells used in the assay were co-transfected with two constructs. The first construct, pBIND-RORγt LBD, contained the wild type human RORγt LBD fused to the DNA binding domain of the GAL4 protein. The second construct, pGL4.31 (Promega Cat no. C935A), contained multiple GAL4 responsive DNA elements upstream of firefly luciferase. […] The mutant construct was called pBIND-RORγt-AF2.
The pBIND vector contains the GAL4 DNA Binding Domain (GAL4 DBD) and the renilla luciferase gene under control of the SV40 promoter. Renilla luciferase expression serves as a control for transfection efficiency and cell viability.
The reporter assay was performed by transiently transfecting HEK293T cells with 5 μg of pBIND-RORγt LBD or pBIND-RORγt LBD-AF2 and 5 μg pGL4.31 (Promega Cat no. C935A) using Fugene 6 (Invitrogen Cat no. E2691) at a 1:6 ratio of DNA: Fugene 6 in a T-75 flask in which cells were at least 80% confluent. Twenty four hours after bulk transfection, cells were plated into 96-well plates at 50,000 cells/well in phenol-red free DMEM containing 5% Lipid Reduced FCS and Pen/Strep. Six hours after plating, cells were treated with compounds for 24 hours. Media was removed and cells were lysed with 50 μL 1× Glo Lysis Buffer (Promega). Dual Glo Luciferase Reagent (50 μL/well) was then added and firefly luciferase luminescence was read on an Envision after a ten minute incubation. Finally, Stop and Glo reagent (50 μL/well) was added and renilla luciferase luminescence was read on an Envision after a ten minute incubation. To calculate the effect of compounds on RORγt activity, the ratio of firefly to renilla luciferase was determined and plotted against compound concentration. Agonist compounds increase RORγt-driven luciferase expression, and antagonist or inverse agonist compounds decrease luciferase expression.

Row | Kd [2] | IC50 (human RORγt LBD) | inhibition at 6 µM (human RORγt LBD; HEK-293T, 6 μM compound) | Compound | IC50 [1]
1 |  |  |  | COc1nc2ccc(C(O)c3cnnn3C)cc2c(Cl)c1Cc1ccc(-n2cccn2)cc1 (single isomer, unassigned) [Example 5b, (3-(4-(1H-Pyrazol-1-yl)benzyl)-4-chloro-2-methoxyquinolin-6-yl)(1-methyl-1H-1,2,3-triazol-5-yl)methanol] | 1500 nM
2 |  |  |  | COc1nc2ccc(C(O)c3cnnn3C)cc2c(Cl)c1Cc1ccc(-n2cccn2)cc1 (single isomer, unassigned) [Example 5c, (3-(4-(1H-Pyrazol-1-yl)benzyl)-4-chloro-2-methoxyquinolin-6-yl)(1-methyl-1H-1,2,3-triazol-5-yl)methanol] | 610 nM
3 | 180 nM | > 6000 nM | 31% | COc1nc2ccc(C(O)c3cnc(C)n3C)cc2c(Cl)c1Cc1ccc(F)cc1 (single isomer, unassigned) [Example 8b] | 
4 | 95 nM | > 6000 nM |  | COc1nc2ccc(C(O)c3cnc(C)n3C)cc2c(Cl)c1Cc1ccc(F)cc1 (single isomer, unassigned) [Example 8c] | 
5 |  | > 6000 nM |  | COc1nc2ccc(C(O)c3cnc(C)n3C)cc2c(Cl)c1Cc1ccc(F)cc1 (centres unmarked) [Example 8a] | 
